For eight compounds, carcinogen call results are on record in PubChem BioAssay AID1259411 (Chemical Carcinogenesis Research Information System (CCRIS), 2018).

Active and inactive are the calls of the source. How the calls were made is not given here.

The subject of this series is rodent carcinogenicity bioassays, tumor incidence. Description: CCRIS carcinogenicity studies. Put shortly:
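NCI-built, expert-reviewed records of carcinogenicity and related test outcomes (mutagenicity, tumor promotion/inhibition) compiled from published and report sources, historical span 1985-2011, not updated.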

`O=S(=O)([O-])[O-].[Cd+2]`: the carcinogen call was “inactive; negative” (Species: HAMSTER, Strain/Sex: SYRIAN/FEMALE, Route: INHALATION, Dose: 0, 30 UG/M3 19 HR/D 5 D/WK FOR 65 WK FOR A TOTAL CADMIUM DOSE OF 0, 180 MG/M3 (STUDY DURATION: 77 WK), Dose: 0, 30 UG/M3 19 HR/D 5 D/WK FOR 65 WK FOR A TOTAL CADMIUM DOSE OF 0, 180 MG/M3 (STUDY DURATION: 77 WK)); “inactive; negative” (Species: HAMSTER, Strain/Sex: SYRIAN/MALE, Route: INHALATION, Dose: 0, 30 UG/M3 19 HR/D 5 D/WK FOR 65 WK FOR A TOTAL CADMIUM DOSE OF 0, 180 MG/M3 (STUDY DURATION: 113 WK), Dose: 0, 30 UG/M3 19 HR/D 5 D/WK FOR 65 WK FOR A TOTAL CADMIUM DOSE OF 0, 180 MG/M3 (STUDY DURATION: 113 WK)); “active; positive” (Species: RAT, Strain/Sex: ALBINO/MALE, Route: SUBCUTANEOUS, Dose: 0.5 MG IN WATER 1/WK FOR 10 WK, Tumor Site: Type of Lesion: INJECTION SITE: SARCOMA, TESTES: INTERSTITIAL CELL TUMOR); “active; positive” (Species: RAT, Strain/Sex: CB/MALE, Route: SUBCUTANEOUS, Dose: 0.5 MG, 1/WK FOR 10 WK, Tumor Site: Type of Lesion: INJECTION SITE: SARCOMA, TESTES: INTERSTITIAL CELL TUMOR); “active; positive” (Species: RAT, Strain/Sex: WISTAR/FEMALE, Route: INHALATION, Dose: 0, 90 UG/M3 22 HR/D 7 D WK FOR 18 MO (STUDY DURATION: 18 MO), Tumor Site: Type of Lesion: LUNG: ALVEOLAR/BRONCHIOLAR ADENOMA, ALVEOLAR/BRONCHIOLAR ADENOCARCINOMA, SQUAMOUS CELL CARCINOMA); “active; positive” (Species: RAT, Strain/Sex: WISTAR/FEMALE, Route: INHALATION, Dose: 0, 90 UG/M3 22 HR/D 7 D/WK FOR 18 MO (STUDY DURATION: 29 MO), Tumor Site: Type of Lesion: LUNG: ALVEOLAR/BRONCHIOLAR ADENOMA, ADENOCARCINOMA, SQUAMOUS CELL CARCINOMA). Besides, the carcinogen call runs as follows: (Species: RAT, Strain/Sex: WISTAR/FEMALE, Route: INHALATION, Dose: 0, 90 UG/M3 22 HR/D 7 D/WK FOR 18 MO (STUDY DURATION: 29 MO), Tumor Site: Type of Lesion: LUNG: TUMOR) “active; positive”; (Species: RAT, Strain/Sex: WISTAR/FEMALE, Route: INHALATION, Dose: 0, 90 UG/M3 AEROSOL 22 HR/D 7 D/WK FOR 18 MO (STUDY DURATION: 29 MO), Tumor Site: Type of Lesion: LUNG: ALVEOLAR/BRONCHIOLAR ADENOMA, ADENOCARCINOMA, SQUAMOUS CELL CARCINOMA) “active; positive”; (Species: RAT, Strain/Sex: WISTAR/MALE, Route: INHALATION, Dose: 0, 90 UG/M3 22 HR/D 7 D/WK FOR 14 MO (STUDY DURATION: 31 MO), Tumor Site: Type of Lesion: LUNG: ALVEOLAR/BRONCHIOLAR ADENOMA, ADENOCARCINOMA) “active; positive”; (Species: RAT, Strain/Sex: WISTAR/MALE, Route: INHALATION, Dose: 0, 90 UG/M3 22 HR/D 7 D/WK FOR 14 MO (STUDY DURATION: 31 MO), Tumor Site: Type of Lesion: LUNG: TUMOR) “active; positive”; (Species: RAT, Strain/Sex: WISTAR/MALE, Route: INHALATION, Dose: 0, 90 UG/M3 22 HR/D 7 D/WK FOR 135 MO (STUDY DURATION: 13.5 MO), Tumor Site: Type of Lesion: LUNG: ALVEOLAR/BRONCHIOLAR ADENOMA, ALVEOLAR/BRONCHIOLAR ADENOCARCINOMA, SQUAMOUS CELL CARCINOMA) “active; positive”; (Species: RAT, Strain/Sex: WISTAR/MALE, Route: INHALATION, Dose: 0, 90 UG/M3 AEROSOL 22 HR/D 7 D/WK FOR 14 MO (STUDY DURATION: 31 MO), Tumor Site: Type of Lesion: LUNG: ALVEOLAR/BRONCHIOLAR ADENOMA, ADENOCARCINOMA) “active; positive”.

Consider `CC(=O)O[C@]1(C(C)=O)CC[C@H]2[C@@H]3C[C@H](C)C4=CC(=O)CC[C@]4(C)[C@H]3CC[C@@]21C`, for which the carcinogen call is “active; positive” (Species: DOG, Route: INTRAMUSCULAR, Tumor Site: Type of Lesion: MAMMARY GLAND) and “inactive; negative” (Species: MONKEY, Strain/Sex: CYNOMOLGUS/FEMALE, Route: ORAL, Dose: 0, 2.5 MG/WOMAN/D HUMAN DOSE EQUIVALENT IN DIET FOR 36 MONTHS BEGINNING 3 MONTHS POST BILATERAL OVARIECTOMY (STUDY DURAT).

Regarding `FC(Cl)C(F)(F)F` (centres undefined), the carcinogen call reads like this: (Species: RAT, Strain/Sex: CRL:CD/FEMALE, Route: INHALATION, Dose: 0, 2000, 10,000, 50,000 PPM 6 HR/D 5 D/WK FOR 2 YR (STUDY DURATION: 2 YR), Dose: 0, 2000, 10,000, 50,000 PPM 6 HR/D 5 D/WK FOR 2 YR (STUDY DURATION: 2 YR)) “inactive; negative”; (Species: RAT, Strain/Sex: CRL:CD/MALE, Route: INHALATION, Dose: 0, 2000, 10,000, 50,000 PPM 6 HR/D 5 D/WK FOR 2 YR (STUDY DURATION: 2 YR), Dose: 0, 2000, 10,000, 50,000 PPM 6 HR/D 5 D/WK FOR 2 YR (STUDY DURATION: 2 YR)) “inactive; negative”.

As for `CN(N=O)C1CCCCC1`, the carcinogen call was “inactive; negative” (Species: HAMSTER, Strain/Sex: SYRIAN/FEMALE, Route: GAVAGE, Dose: 0, 2.5 MG/KG 1/WK FOR 50 WK (TOTAL DOSE: 0; 0.9 MMOL) (STUDY DURATION: LIFETIME), Dose: 0, 2.5 MG/KG 1/WK FOR 50 WK (TOTAL DOSE: 0; 0.9 MMOL) (STUDY DURATION: LIFETIME)) and “active; positive” (Species: HAMSTER, Strain/Sex: SYRIAN/MALE, Route: GAVAGE, Dose: 0, 2.5 MG/KG 1/WK FOR 50 WK (TOTAL DOSE: 0; 0.9 MMOL) (STUDY DURATION: LIFETIME), Dose: 0, 2.5 MG/KG 1/WK FOR 50 WK (TOTAL DOSE: 0; 0.9 MMOL) (STUDY DURATION: LIFETIME), Tumor Site: Type of Lesion: LUNG: ALVEOLAR/BRONCHIAL ADENOMA, ADENOSQUAMOUS CARCINOMA).

In the case of `CNC(=O)Oc1cc(C)c(N(C)C)c(C)c1`, the carcinogen call is, setting by setting: (Species: MOUSE, Strain/Sex: B6C3F1/FEMALE, Route: ORAL, Dose: 0, 68, 135 PPM IN DIET, TWA, Dose: 0, 68, 135 PPM IN DIET, TWA) “inactive; negative”; (Species: MOUSE, Strain/Sex: B6C3F1/MALE, Route: ORAL, Dose: 0, 327, 654 PPM IN DIET, TWA, Dose: 0, 327, 654 PPM IN DIET, TWA) “inactive; negative”; (Species: RAT, Strain/Sex: OSBORNE-MENDEL/FEMALE, Route: ORAL, Dose: 0, 339, 678 PPM IN DIET, TWA, Dose: 0, 339, 678 PPM IN DIET, TWA) “inactive; negative”; (Species: RAT, Strain/Sex: OSBORNE-MENDEL/MALE, Route: ORAL, Dose: 0, 209, 418 PPM IN DIET, TWA, Dose: 0, 209, 418 PPM IN DIET, TWA) “inactive; negative”.

As for `CNC(=O)Oc1cccc2ccccc12`, the carcinogen call is “inactive; negative” (Species: MOUSE, Strain/Sex: SWISS/FEMALE, Route: DERMAL, Dose: 0, 100 MG/KG IN 100 µL ACETONE 3/WK FOR 52 WK (STUDY DURATION: 52 WK)); “active; positive (purity 99.3%; study details not given in source; mtd may have been exc” (Species: Mouse, Strain/Sex: CD-1/Female (70/group), Route: Oral, Dose: 0, 100, 1,000, 8,000 ppm in feed for 104 wk, Dose: 0, 100, 1,000, 8,000 ppm in feed for 104 wk, Tumor Site: Type of Lesion: BLOOD VESSELS: Hemangiosarcoma and hemangioma (high dose only). LIVER: Hepatocellular adenoma and carcinoma (high dose o); “active; positive (purity 99.3%; study details not given in source; neoplastic lesions co” (Species: Mouse, Strain/Sex: CD-1/Male (70/group), Route: Oral, Dose: 0, 100, 1,000, 8,000 ppm in feed for 104 wk, Dose: 0, 100, 1,000, 8,000 ppm in feed for 104 wk, Tumor Site: Type of Lesion: BLOOD VESSELS: Hemangiosarcoma and hemangioma (all doses). KIDNEY: Renal tubular cell adenoma and carcinoma (high dose o); “active; positive” (Species: RAT, Strain/Sex: SWISS, Route: GAVAGE, Dose: 0, 30 MG/KG BW, 1/D FOR UP TO 22 MO, Tumor Site: Type of Lesion: INTESTINES: FIBROSARCOMA, BONE: OSTEOSARCOMA); “active; positive at the high dose level (purity 99%; study details not given in source)” (Species: Rat, Strain/Sex: Sprague-Dawley/Male (50/control and high-dose group and 40 per low-and mid-dose group), Route: Oral, Dose: 0, 250, 1,500, 7,500 ppm in feed for 104 wk, Dose: 0, 250, 1,500, 7,500 ppm in feed for 104 wk, Tumor Site: Type of Lesion: URINARY BLADDER: papilloma and carcinoma at highest dose. KIDNEY: one transitional cell carcinoma. LIVER: adenoma. THYRO).

For `CC1=C[C@H]2O[C@@H]3[C@H](O)[C@@H](O)[C@](C)([C@@]2(CO)[C@H](O)C1=O)[C@]31CO1`, under “Species: MOUSE, Strain/Sex: C57BL/6CRSLC/FEMALE, Route: ORAL, Dose: 0, 6, 12, 30 PPM IN DIET FOR 104 WK (STUDY DURATION: 104 WK), Dose: 0, 6, 12, 30 PPM IN DIET FOR 104 WK (STUDY DURATION: 104 WK)”, the carcinogen call was “inactive; negative”.

On to `Cc1cc2c(c3ccc4ccccc4c13)CCC2=O`, for which the carcinogen call (Species: MOUSE, Strain/Sex: TO/MALE, FEMALE, Route: DERMAL, Dose: 0, 50 UG (10 µL OF A 0.5% W/V TOLUENE SOLUTION) 2/WK FOR 70 WK (STUDY DURATION: 70 WK), Tumor Site: Type of Lesion: SKIN: CARCINOMA) was “active; positive”.
